Source: ChEMBL document CHEMBL1153258, “Synthesis and antiviral activity of 3-substituted imidazo[1,2-a]pyridines” (Bioorg Med Chem Lett, 1994)
Converted amounts (≈) assume the structure as drawn.

Key:
E6SM [1] = assay: Antiviral activity (to reduce virus-induced cytopathogenicity) against Herpes simplex virus-1(KOS) in E6SM cell cultures; format: functional; details: Homo sapiens
Vero [2] = assay: Antiviral activity (to reduce virus-induced cytopathogenicity) against Parainfluenza-3 virus in vero cells; format: functional; details: Chlorocebus sabaeus
HeLa [3] = assay: Antiviral activity (to reduce virus-induced cytopathogenicity) against Coxsackie virus B4 in HeLa cells; format: functional; details: Homo sapiens
E6SM [4] = assay: Antiviral activity (to reduce virus-induced cytopathogenicity) against Herpes simplex virus-1 TK-VMW1837 in E6SM cell cultures; format: functional; details: Homo sapiens
E6SM [5] = assay: Cytotoxicity (to alter cell morphology) against E6SM cell cultures; format: functional; details: Homo sapiens
E6SM [6] = assay: Antiviral activity (to reduce virus-induced cytopathogenicity) against Vesicular stomatitis virus in E6SM cell cultures; format: functional; details: Homo sapiens
E6SM [7] = assay: Antiviral activity (to reduce virus-induced cytopathogenicity) against Herpes simplex virus-2 (G) in E6SM cell cultures; format: functional; details: Homo sapiens
Vero [8] = assay: Antiviral activity (to reduce virus-induced cytopathogenicity) against Reovirus-1 in vero cells; format: functional; details: Chlorocebus sabaeus
HeLa [9] = assay: Cytotoxicity (to alter cell morphology) against HeLa cells; format: functional; details: Homo sapiens
E6SM [10] = assay: Antiviral activity (to reduce virus-induced cytopathogenicity) against Vaccinia virus in E6SM cell cultures; format: functional; details: Homo sapiens
HeLa [11] = assay: Antiviral activity (to reduce virus-induced cytopathogenicity) against Vesicular stomatitis virus in HeLa cells; format: functional; details: Homo sapiens
Vero [12] = assay: Antiviral activity (to reduce virus-induced cytopathogenicity) against forest virus in vero cells; format: functional; details: Chlorocebus sabaeus
HeLa [13] = assay: Antiviral activity (to reduce virus-induced cytopathogenicity) against Polio virus-I in HeLa cells; format: functional; details: Homo sapiens
Vero [14] = assay: Antiviral activity (to reduce virus-induced cytopathogenicity) against Sindbis virus in vero cells; format: functional; details: Chlorocebus sabaeus
E6SM [15] = assay: Antiviral activity (to reduce virus-induced cytopathogenicity) against Herpes simplex virus-1 TK-B2006 in E6SM cell cultures; format: functional; details: Homo sapiens
Vero [16] = assay: Antiviral activity (to reduce virus-induced cytopathogenicity) against Coxsackie virus in vero cells; format: functional; details: Chlorocebus sabaeus
Vero [17] = assay: Minimum cytotoxic concentration (to alter cell morphology) against vero cells; format: functional; details: Chlorocebus sabaeus
[18] = Cytotoxicity (to reduce cell growth) against Varicella-Zoster virus in human embryonic lung (HEL) cells; format: cell-based
HEL [19] = assay: Antiviral activity against thymidine kinase-negative (TK-) YS/R strain of Varicella zoster virus to reduce plaque formation in human embryonic lung (HEL) cells; format: functional, cell-based
HEL [20] = assay: Antiviral activity against thymidine kinase-positive (TK+) YS strain of Varicella zoster virus to reduce plaque formation in human embryonic lung (HEL) cells; format: functional, cell-based
HEL [21] = assay: Cytotoxicity (to alter cell morphology) against Varicella-Zoster virus in human embryonic lung (HEL) cells; format: functional
HEL [22] = assay: Antiviral activity against thymidine kinase-positive (TK+) OKA strain of Varicella zoster virus to reduce plaque formation in human embryonic lung (HEL) cells; format: functional, cell-based
HEL [23] = assay: Cytotoxicity (to alter cell morphology) against Cytomegalovirus in human embryonic lung (HEL) cells; format: functional
HEL [24] = assay: Antiviral activity against Cytomegalovirus (Davis strain) to reduce plaque formation in human embryonic lung (HEL) cells; format: functional, cell-based
HEL [25] = assay: Antiviral activity against Cytomegalovirus (AD-169 strain) to reduce plaque formation in human embryonic lung (HEL) cells; format: functional, cell-based
[26] = Cytotoxicity (to reduce cell growth) against Cytomegalovirus in human embryonic lung (HEL) cells; format: cell-based

Nc1ncnc2c1ncn2C[C@H](O)CO [(S)-DHPA]
MIC (E6SM [1]): 100 µg/mL (≈ 478 µM)
MIC (Vero [2]): 20 µg/mL (≈ 95.6 µM)
MIC (HeLa [3]): > 400 µg/mL
MIC (E6SM [4]): 100 µg/mL (≈ 478 µM)
MCC (E6SM [5]): > 400 µg/mL
MIC (E6SM [6]): 40 µg/mL (≈ 191 µM)
MIC (E6SM [7]): > 400 µg/mL
MIC (Vero [8]): 40 µg/mL (≈ 191 µM)
MCC (HeLa [9]): > 400 µg/mL
MIC (E6SM [10]): 40 µg/mL (≈ 191 µM)
MIC (HeLa [11]): 70 µg/mL (≈ 335 µM)
MIC (Vero [12]): > 400 µg/mL
MIC (HeLa [13]): > 400 µg/mL
MIC (Vero [14]): > 400 µg/mL
MIC (E6SM [15]): 200 µg/mL (≈ 956 µM)
MIC (Vero [16]): > 400 µg/mL
MCC (Vero [17]): > 400 µg/mL

Nc1nc2c(ncn2COCCO)c(=O)[nH]1 [ACYCLOVIR]
CC50 [18]: > 50 µg/mL
IC50 (HEL [19]): 9 µg/mL (≈ 40 µM)
IC50 (HEL [20]): 0.32 µg/mL (≈ 1.42 µM)
MCC (HEL [21]): > 40 µg/mL
IC50 (HEL [22]): 0.23 µg/mL (≈ 1.02 µM)

O=c1[nH]c(=O)n([C@H]2C[C@H](O)[C@@H](CO)O2)cc1/C=C/Br [BRIVUDINE]
MIC (E6SM [1]): 0.004 µg/mL (≈ 0.012 µM)
MIC (Vero [2]): > 400 µg/mL
MIC (HeLa [3]): > 400 µg/mL
MIC (E6SM [4]): 1 µg/mL (≈ 3 µM)
MCC (E6SM [5]): > 400 µg/mL
MIC (E6SM [6]): > 400 µg/mL
MIC (E6SM [7]): 20 µg/mL (≈ 60 µM)
MIC (Vero [8]): > 400 µg/mL
MCC (HeLa [9]): > 400 µg/mL
MIC (E6SM [10]): 0.2 µg/mL (≈ 0.6 µM)
MIC (HeLa [11]): > 400 µg/mL
MIC (Vero [12]): > 400 µg/mL
MIC (HeLa [13]): > 400 µg/mL
MIC (Vero [14]): > 400 µg/mL
MIC (E6SM [15]): 2 µg/mL (≈ 6 µM)
MIC (Vero [16]): > 400 µg/mL
MCC (Vero [17]): > 400 µg/mL

Nc1nc2c(ncn2COC(CO)CO)c(=O)[nH]1 [GANCICLOVIR]
MCC (HEL [23]): > 100 µg/mL
IC50 (HEL [24]): 1.5 µg/mL (≈ 5.88 µM)
IC50 (HEL [25]): 2 µg/mL (≈ 7.84 µM)
CC50 [26]: 200 µg/mL (≈ 784 µM)

NC(=O)c1ncn([C@@H]2O[C@H](CO)[C@@H](O)[C@H]2O)n1 [RIBAVIRIN]
MIC (E6SM [1]): > 400 µg/mL
MIC (Vero [2]): 70 µg/mL (≈ 287 µM)
MIC (HeLa [3]): 70 µg/mL (≈ 287 µM)
MIC (E6SM [4]): 300 µg/mL (≈ 1230 µM)
MCC (E6SM [5]): > 400 µg/mL
MIC (E6SM [6]): 150 µg/mL (≈ 614 µM)
MIC (E6SM [7]): 150 µg/mL (≈ 614 µM)
MIC (Vero [8]): 100 µg/mL (≈ 409 µM)
MCC (HeLa [9]): > 400 µg/mL
MIC (E6SM [10]): 70 µg/mL (≈ 287 µM)
MIC (HeLa [11]): 20 µg/mL (≈ 81.9 µM)
MIC (Vero [12]): 70 µg/mL (≈ 287 µM)
MIC (HeLa [13]): 70 µg/mL (≈ 287 µM)
MIC (Vero [14]): 70 µg/mL (≈ 287 µM)
MIC (E6SM [15]): 300 µg/mL (≈ 1230 µM)
MIC (Vero [16]): 300 µg/mL (≈ 1230 µM)
MCC (Vero [17]): > 400 µg/mL
